Source: ChEMBL document CHEMBL2401715, “Synthesis, antitumor and antibacterial activities of some novel tetrahydrobenzo[4,5]thieno[2,3-d]pyrimidine derivatives” (Eur J Med Chem, 2013)

Assays:
Bacillus subtilis = test: Antibacterial activity against Bacillus subtilis ATCC 6051 assessed as growth inhibition after 24 to 48 hrs by kirby-bauer disc diffusion method; type: functional; further: test concentration or dose not given here
Pseudomonas aeruginosa [1] = test: Antibacterial activity against Pseudomonas aeruginosa ATCC 10145 assessed as growth inhibition after 24 to 48 hrs by kirby-bauer disc diffusion method; type: functional; further: test concentration or dose not given here
HepG2 = test: Cytotoxicity against human HepG2 cells assessed as cell survival after 48 hrs by SRB assay; type: functional, cell-based; settings: HepG2, 48 h
MCF7 = test: Cytotoxicity against human MCF7 cells assessed as cell survival after 48 hrs by SRB assay; type: functional, cell-based; settings: MCF7, 48 h
Pseudomonas aeruginosa [2] = test: Antibacterial activity against Pseudomonas aeruginosa ATCC 10145 assessed as growth inhibition by broth microdilution method; type: functional
Staphylococcus aureus [3] = test: Antibacterial activity against Staphylococcus aureus ATCC 12600 assessed as growth inhibition by broth microdilution method; type: functional
Staphylococcus aureus [4] = test: Antibacterial activity against Staphylococcus aureus ATCC 12600 assessed as growth inhibition after 24 to 48 hrs by kirby-bauer disc diffusion method; type: functional; further: test concentration or dose not given here
Escherichia coli = test: Antibacterial activity against Escherichia coli ATCC 11775 assessed as growth inhibition after 24 to 48 hrs by kirby-bauer disc diffusion method; type: functional, DSM 30083 = JCM 1649; further: test concentration or dose not given here

MIC (Pseudomonas aeruginosa [2])	MIC (Staphylococcus aureus [3])	Compound	diameter of the inhibition zone (DIZ) (Bacillus subtilis)	diameter of the inhibition zone (DIZ) (Pseudomonas aeruginosa [1])	IC50 (HepG2)	IC50 (MCF7)	diameter of the inhibition zone (DIZ) (Staphylococcus aureus [4])	diameter of the inhibition zone (DIZ) (Escherichia coli)
11 µg/mL	8 µg/mL	COc1cc(-c2nc3sc4c(c3c(=O)n2-c2ccc3c(C)c5ccc(N)cc5nc3c2)CCCC4)cc(OC)c1OC	23 mm	25 mm	5.5 µM	0.86 µM	26 mm	22 mm
18 µg/mL	13 µg/mL	Cc1c2ccc(N)cc2nc2cc(-n3c(/C=C/c4ccccc4)nc4sc5c(c4c3=O)CCCC5)ccc12	20 mm	21 mm	5.82 µM	0.19 µM	24 mm	21 mm
